Assay results: PMC10901772, “Cytotoxic naphtho- and benzofurans from an endophytic fungus Epicoccum nigrum Ann-B-2 associated with Annona squamosa fruits” (Scientific Reports, 2024)
Converted amounts (≈) assume the structure as drawn. “Also recorded” adds a separate entry of the source. Read-outs that look alike come from different tables or passages of the source.

Key:
Type in all cases: cell-based
[1] = test system: ovary cancer (SK-OV-3); assay: In vitro cytotoxicity, MTT assay; conditions: Homo sapiens
Method: (§1) In vitro cytotoxicity studies (data expressed in the form of IC50 values) were performed over a concentration range between 1 and 37 µg/mL on a panel of seven cancer cell lines including human endocervical adenocarcinoma (KB3.1), mouse fibroblasts (L929), lung cancer (A549), squamous cancer (A431), prostate cancer (PC-3), breast cancer (MCF-7), and ovary cancer (SK-OV-3) using the MTT assay as previously reported.

[2] = test system: prostate cancer (PC-3); assay: In vitro cytotoxicity, MTT assay; conditions: for sensitivity of PC-3 (in words): PC-3 (prostate cancer)
Method: as §1

[3] = test system: squamous cancer (A431); assay: In vitro cytotoxicity, MTT assay; conditions: Homo sapiens, A-431
Method: as §1

[4] = test system: breast cancer (MCF-7); assay: In vitro cytotoxicity, MTT assay; conditions: Homo sapiens, MCF7
Method: as §1

[5] = test system: lung cancer (A549); assay: In vitro cytotoxicity, MTT assay; conditions: Homo sapiens
Method: as §1

[6] = test system: panel of seven cancer cell lines; assay: In vitro cytotoxicity, MTT assay, whole panel; conditions: for antiproliferative / anticancer activity (in words): panel of cancer cell lines; for IC50: panel of seven different cancer cell lines, read-out: IC50 values, range over the panel
Method: as §1

[7] = test system: Staphylococcus aureus [DSM 346]; assay: MIC, 96-well plate serial dilution assay
[8] = test system: Mucor hiemalis [DSM 2656]; assay: MIC, 96-well plate serial dilution assay
[9] = test system: mouse fibroblasts (L929); assay: In vitro cytotoxicity, MTT assay
Method: as §1

[10] = test system: human endocervical adenocarcinoma (KB3.1); assay: In vitro cytotoxicity, MTT assay; conditions: KB 3-1, KB3.1, MTT
Method: as §1

[11] = test system: Candida albicans [DSM 1665]; assay: MIC, 96-well plate serial dilution assay
[12] = test system: Rhodotorula glutinis [DSM 10134]; assay: MIC, 96-well plate serial dilution assay
[13] = test system: Bacillus subtilis [DSM 10]; assay: MIC, 96-well plate serial dilution assay; conditions: for MIC: DSM10, concentration range 67 to 0.5 µg/mL
[14] = test system: Mycobacterium smegmatis [ATCC 700084]; assay: MIC, 96-well plate serial dilution assay
[15] = test system: remaining strains (S. aureus, M. smegmatis, M. hiemalis, C. albicans, R. glutinis); assay: MIC serial dilution assay, strains other than Bacillus subtilis; conditions: all tested strains except Bacillus subtilis
[16] = DSM346, concentration range 67 to 0.5 µg/mL, read-out: MIC
[17] = DSM2656, concentration range 67 to 0.5 µg/mL, read-out: MIC
[18] = DSM1665, concentration range 67 to 0.5 µg/mL, read-out: MIC
[19] = DSM10134, concentration range 67 to 0.5 µg/mL, read-out: MIC
[20] = Mycolicibacterium smegmatis, ATCC700084, concentration range 67 to 0.5 µg/mL, read-out: MIC
[21] = concentration range 67 to 0.5 µg/mL

## C/C(=C\c1csc(C)n1)[C@@H]1C[C@@H]2O[C@]2(C)CCC[C@H](C)[C@H](O)[C@@H](C)C(=O)C(C)(C)[C@@H](O)CC(=O)O1 [Epothilone B, reference compound]
[1]
  IC50: 9e-05 µM
[2]
  IC50: 9e-05 µM
[3]
  IC50: 6e-05 µM
[4]
  IC50: 0.07 nM
[5]; A549
  IC50: 5e-05 µM

## Cc1c(O)c(O)c(O)c(C=O)c1-c1cc2c(C=O)c(C)c(O)c(O)c2o1 [Compound 4, epicoccolide B]
[6]
  antiproliferative / anticancer activity (in words): weak anticancer activity
[7]; [16]
  MIC: > 67 µg/mL
[8]; [17]
  MIC: > 67 µg/mL
[9]
  IC50: 19 µM
[10]
  IC50: 21 µM
[11]; [18]
  MIC: > 67 µg/mL
[12]; [19]
  MIC: > 67 µg/mL
[13]
  MIC: 66.6 µg/mL (≈ 186 µM)
[14]; [20]
  MIC: > 67 µg/mL

## COC1OC(C2OCc3c(C)c(O)c(O)c(O)c32)c2c(O)c(O)c(O)c(C)c21 (stereo not shown) [Compound 2, flavimycin C]
[15]
  antimicrobial activity against the remaining strains (in words): no potential activity
[6]
  antiproliferative / anticancer activity (in words): highest potency; also recorded: promising anticancer activities
  IC50: 1.3 to 12 µM
[7]; [16]
  MIC: > 67 µg/mL
[8]; [17]
  MIC: > 67 µg/mL
[1]; SKOV-3, MTT, read-out: IC50
  IC50: 17 µM
[9]
  IC50: 6.7 µM
[2]
  sensitivity of PC-3 (in words): insensitive
[2]; PC-3, MTT, read-out: IC50
  IC50: > 100 µM
[3]; A431, MTT, read-out: IC50
  IC50: 8.2 µM
[10]
  IC50: 7.8 µM
[4]; MCF-7, MTT, read-out: IC50
  IC50: 2700 nM
[5]; A549, MTT, read-out: IC50
  IC50: 9.2 µM
[11]; [18]
  MIC: > 67 µg/mL
[12]; [19]
  MIC: > 67 µg/mL
[13]
  antimicrobial activity against Bacillus subtilis (in words): moderate activity; also recorded: moderate antimicrobial activities
  potency against Bacillus relative to the standard oxytetracycline: almost half
  MIC: 33.3 µg/mL (≈ 84.9 µM)
[14]; [20]
  MIC: > 67 µg/mL

## CN(C)[C@@H]1C(O)=C(C(N)=O)C(=O)[C@@]2(O)C(O)=C3C(=O)c4c(O)cccc4[C@@](C)(O)[C@H]3[C@H](O)[C@@H]12 [Oxytetracycline, reference compound]
[13]
  MIC: 16.6 µg/mL (≈ 36.1 µM)

## Cc1c2c(c3c(C)c(O)c(C(=O)O)c(O)c3c1O)COC2 [Compound 1, epicoccofuran A]
[15]
  antimicrobial activity against the remaining strains (in words): no potential activity
[6]
  antiproliferative / anticancer activity (in words): weak anticancer activity
[7]; [16]
  MIC: > 67 µg/mL
[8]; [17]
  MIC: > 67 µg/mL
[9]
  IC50: 12 µM
[10]
  IC50: 16 µM
[11]; [18]
  MIC: > 67 µg/mL
[12]; [19]
  MIC: > 67 µg/mL
[13]
  antimicrobial activity against Bacillus subtilis (in words): moderate activity; also recorded: moderate antimicrobial activities
  potency against Bacillus relative to the standard oxytetracycline: almost half
  MIC: 33.3 µg/mL (≈ 115 µM)
[14]; [20]
  MIC: > 67 µg/mL

## NC[C@H]1O[C@H](O[C@H]2[C@H](O)[C@@H](O[C@H]3O[C@H](CO)[C@@H](O)[C@H](N)[C@H]3O)[C@H](N)C[C@@H]2N)[C@H](O)[C@@H](O)[C@@H]1O [Kanamycin, reference compound]
[14]; [21]
  MIC: 1.7^ K µg/ml

## Gentamycin [reference compound]
[7]; [21]
  MIC: 0.21^G µg/ml

## Cc1c(O)c(O)c(O)c2c1C(=O)OC2 [Compound 5, epicoccone]
[6]
  antiproliferative / anticancer activity (in words): active against all tested cell lines; also recorded: promising anticancer activities
  IC50: 1.3 to 12 µM
[7]; [16]
  MIC: > 67 µg/mL
[8]; [17]
  MIC: > 67 µg/mL
[1]; SKOV-3, MTT, read-out: IC50
  IC50: 8.2 µM
[9]
  IC50: 7.5 µM
[2]; PC-3, MTT, read-out: IC50
  IC50: 8 µM
[3]; A431, MTT, read-out: IC50
  IC50: 7.3 µM
[10]
  IC50: 6.1 µM
[4]; MCF-7, MTT, read-out: IC50
  IC50: 3800 nM
[5]; A549, MTT, read-out: IC50
  IC50: 6.8 µM
[11]; [18]
  MIC: > 67 µg/mL
[12]; [19]
  MIC: > 67 µg/mL
[13]
  MIC: > 67 µg/mL
[14]; [20]
  MIC: > 67 µg/mL

## Cc1c(O)c(O)c2c(c1C=O)[C@@H]1O[C@H](O2)c2c(C)c(O)c(O)c(O)c2C1=O [Compound 3, epicocconigrone A]
[6]
  antiproliferative / anticancer activity (in words): active against all tested cell lines; also recorded: promising anticancer activities
  IC50: 1.3 to 12 µM
[7]; [16]
  MIC: > 67 µg/mL
[8]; [17]
  MIC: > 67 µg/mL
[1]; SKOV-3, MTT, read-out: IC50
  IC50: 12 µM
[9]
  IC50: 14 µM
[2]; PC-3, MTT, read-out: IC50
  IC50: 8 µM
[3]; A431, MTT, read-out: IC50
  IC50: 7.8 µM
[10]
  IC50: 2.7 µM
[4]; MCF-7, MTT, read-out: IC50
  IC50: 2400 nM
[5]; A549, MTT, read-out: IC50
  IC50: 10 µM
[11]; [18]
  MIC: > 67 µg/mL
[12]; [19]
  MIC: > 67 µg/mL
[13]
  MIC: 66.6 µg/mL (≈ 178 µM)
[14]; [20]
  MIC: > 67 µg/mL

## Cc1c(O)c(O)c(O)c2c1COC2 [Compound 6, 4,5,6-trihydroxy-7-methyl-1,3-dihydroisobenzofuran]
[6]
  antiproliferative / anticancer activity (in words): highest potency; also recorded: promising anticancer activities
  IC50: 1.3 to 12 µM
[7]; [16]
  MIC: > 67 µg/mL
[8]; [17]
  MIC: > 67 µg/mL
[1]; SKOV-3, MTT, read-out: IC50
  IC50: 7.8 µM
[9]
  IC50: 2.8 µM
[2]
  sensitivity of PC-3 (in words): insensitive
[2]; PC-3, MTT, read-out: IC50
  IC50: > 100 µM
[3]; A431, MTT, read-out: IC50
  IC50: 7.3 µM
[10]
  IC50: 3.4 µM
[4]; MCF-7, MTT, read-out: IC50
  IC50: 1300 nM
[5]; A549, MTT, read-out: IC50
  IC50: 6.3 µM
[11]; [18]
  MIC: > 67 µg/mL
[12]; [19]
  MIC: > 67 µg/mL
[13]
  MIC: > 67 µg/mL
[14]; [20]
  MIC: > 67 µg/mL

## C[C@@H]1[C@H](O)[C@@H](C)/C=C/C=C/CC/C=C/C=C/C=C/C=C/C(O[C@H]2O[C@H](C)[C@@H](O)[C@H](N)[C@@H]2O)CC2O[C@](O)(CC(O)C(O)CCC(O)CC(O)CC(O)CC(=O)O[C@H]1C)CC(O)C2C(=O)O (stereo partly shown) [Nystatin, reference compound]
[8]; [21]
  MIC: 2.1^N µg/ml
[11]; [21]
  MIC: 2.1^N µg/ml
[12]; [21]
  MIC: 2.1^N µg/ml
